# Measurements taken from patent US20080108067A1, “Cloning of the retinoic acid inducible gene-1 promoter and uses thereof” (priority 2004, published 2008).
# System: human RIG-1 promoter (RIG-PROM-LUC reporter)
# Assay: RIG-PROM-LUC luciferase reporter activity in response to inducers in transfected human cells
# Assay type: cell-based
smiles,measurement,setting,value
"CC1=C(/C=C/C(C)=C/C=C/C(C)=C/C(=O)O)C(C)(C)CCC1 [retinoic acid, all Trans-retinoic acid]",activation of promoter activity (RIG-PROM-LUC),"FM516 and HeLa cells, IFN-β induction greater than PolyIC:PolyIC and least with retinoic acid, FIG. 2",robust activation
same,response of reporter compared to untreated controls,"depending on the cell line (FM516, T47D, HeLa, PHFA), inducer 6 h then overnight incubation",around 1.5 fold
